Assay [1] addresses T1, phenylethanolamine N-methyltransferase (Oryctolagus cuniculus, UniProt G1TT82).
T1 sequence (G1TT82 1-286): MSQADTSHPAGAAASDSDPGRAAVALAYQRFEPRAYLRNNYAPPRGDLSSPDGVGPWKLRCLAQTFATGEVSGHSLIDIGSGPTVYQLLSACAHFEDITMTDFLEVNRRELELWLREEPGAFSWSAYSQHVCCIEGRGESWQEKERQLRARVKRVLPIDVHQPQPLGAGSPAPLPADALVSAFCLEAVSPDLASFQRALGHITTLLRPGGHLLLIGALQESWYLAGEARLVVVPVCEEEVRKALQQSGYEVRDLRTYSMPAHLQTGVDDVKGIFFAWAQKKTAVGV
Briefly: inhibition of phenylethanolamine N-methyltransferase in vitro (assay procedure of Pendleton and Snow). Type of assay: biochemical. As to conditions: read-out: inhibit phenylethanolamine N-methyltransferase; for inhibition at 100 µM: concentration 1.0 x 10-^4 (unit inferred); for inhibition at 1 µM: concentration 1.0 x 10-^6 (unit inferred).

A further assay deals with PNMT. Briefly: in vivo PNMT inhibition in mice: adrenal epinephrine/norepinephrine ratio, measured fluorometrically. Conditions: male mice, oral, 50 mg/kg per day, twice a day for seven days, dosed again next morning, sacrificed two hours later; vehicle control 2.5 + 0.23; p <.01. The method, then: Male mice were dosed orally with either drug or vehicle control on a twice-a-day basis for seven consecutive days. On the morning of the next day they were again dosed and two hours later sacrificed by decapitation. The adrenal glands were then removed and analyzed fluorometrically for both epinephrine and norepinephrine content.

For two molecules, inhibition and adrenal epinephrine/norepinephrine ratio results are on record in EP0023761B1, “Tetrahydroisoquinoline derivatives, process for preparing them and compositions containing them” (priority 1979, dated 1981).

Structures can show the parent of a compound that is named as a salt.

As for `c1cc2nnsc2c2c1CCNC2` [[1,2,3]thiadiazolo[4,5-h]-6,7,8,9-tetrahydroisoquinoline hydrochloride], in assay [1], the inhibition at 100 µM worked out at 99% and the inhibition at 1 µM amounted to 91%.
As for `c1cc2snnc2c2c1CCNC2` [[1,2,3]thiadiazolo[5,4-h]-6,7,8,9-tetrahydroisoquinoline hydrochloride], in assay [1], the inhibition at 100 µM worked out at 99% and the inhibition at 1 µM was determined as 94%. Also, the adrenal epinephrine/norepinephrine ratio in the assay with PNMT was 1.3 ± 0.08.
